From US6268391A, “Benzylidene-1,3-dihydro-indol-2-one derivatives a receptor tyrosine kinase inhibitors, particularly of Raf kinases” (Glaxo Wellcome Inc., priority 1997, dated 2001) come the findings set out here.

Some results are limits rather than exact numbers.

This assay has as its target T1, Human cRaf1 (Homo sapiens, UniProt P04049).
T1 construct: poly-histidine (C); made in house
Description: Raf kinase assay (cRaf1 assay / Raf/MEK cascade assay). In kind it is biochemical. To be noted: Table 3; read-out: Raf Kinase activity. Here is the method: The potency of cRaf1 dependent kinase activity was measured using one of two assay formats. The first measured cRaf1 catalyzed phosphorylation of MEK1, the natural substrate for cRaf1. This assay is referred to as the cRaf1 assay. The second measured the ability of cRaf1 to phosphorylate and activate MEK1. This assay is referred to as the Raf/MEK cascade assay.
Human cRaf1 tagged with poly histidine at the carboxyterminus was expressed in a baculovirus expression system and purfied by Ni chelate affinity chromatography. Human MEK1 was expressed in E. coli as a fusion protein with Glutathione-S-transferase, and purified by glutathione sepharose affinity chromatography. […] Reactions contained cRaf1 (20 nM), MEK1 (100-500 nM), [γ-^32 P]ATP ([…]), Mg^2+ (10 mM), MOPS (50 mM, pH 7.5). Reactions were incubated at room temperature for periods of time ranging from 20-120 minutes. Inhibitors were diluted in 100% DMSO prior to addition to the assay. Reactions were terminated with an equal volume of 0.5% phosphoric acid. MEK1 phosphorylation was detected by scintillation counting following collection of protein onto phosphocellulose filters.
Human cRaf1 and MEK1 were purified as described above. A peptide substrate phosphorylated by MEK1 was used as the final phosphoryl group acceptor. […] Assay conditions were the same as those described above except for the following modifications. Reactions contained cRaf1 (1-5 nM), MEK1 (60 nM), and peptide ([…]).
“2,6-Dibromo-4-[(5-glycoloyl-2-oxo-1,2-dihydro-3H-indol-3-ylidene)methyl]phenyl ethyl carbonate [Example 155]”: the IC50 lay in the range of 10000 to 100000 nM.
As for “3-(3,5-Dibromo-4-hydroxy-benzylidene)-5-(3-methylimidazol-1-yl-acetyl)-1,3-dihydro-indol-2-one [Example 71]”, the figure is less than 1000 nM; as for “3-(3-Bromo-4-hydroxy-5-ethoxy-benzylidene)-5-(2-dimethylamino-acetyl)-1,3-dihydro-indol-2-one [Example 111]”, less than 1000 nM.
Under “5-{2-[N-Benzyl-N-(2-hydroxy-acetyl)-amino]-ethyl}-3-(3,5-dibromo-4-hydroxy-benzylidene)-1,3-dihydro-indol-2-one [Example 78]” stands less than 1000 nM; under `CCOc1cc(C=C2C(=O)Nc3ccc(-c4csc(C)n4)cc32)cc(Br)c1O` [Example 3, 3-(3-Bromo-5-ethoxy-4-hydroxy-benzylidene)-5-(2-methyl-thiazol-4-yl)-1,3-dihydro-indol-2-one], less than 1000 nM; under `Cc1nc(-c2ccc3c(c2)C(=Cc2cc(Cl)c(O)c(Cl)c2)C(=O)N3)cs1` [Example 4], less than 1000 nM.
As to `CC(C)CC(=O)c1ccc2c(c1)C(=Cc1cc(Br)c(O)c(Br)c1)C(=O)N2` [Example 5], the IC50 was less than 1000 nM.
As for `O=C1Nc2ccc(C(=O)c3ccccc3)cc2C1=Cc1cc(Br)c(O)c(Br)c1` [Example 6, 5-Benzoyl-3-(3,5-dibromo-4-hydroxy-benzylidene)-1,3 dihydro-indol-2-one], the figure is less than 1000 nM; as for `O=C1Nc2ccc(C(=O)c3ccccc3)cc2C1=Cc1cc(Cl)c(O)c(Cl)c1` [Example 7, 5-Benzoyl-3-(3,5-dichloro-4-hydroxy-benzylidene)-1,3-dihydro-indol-2-one], less than 1000 nM.
As for `CC(C)CC(=O)c1ccc2c(c1)C(=Cc1cc(Cl)c(O)c(Cl)c1)C(=O)N2` [Example 9], the figure is less than 1000 nM; as for `CCOc1cc(C=C2C(=O)Nc3ccc(C(=O)CC(C)C)cc32)cc(Br)c1O` [Example 10, 3-(3-Bromo-5-ethoxy-4-hydroxy-benzylidene)-5-(3-methyl-butanoyl)-1,3-dihydro-indol-2-one], less than 1000 nM.
As for `O=C1Nc2ccc(C(=O)c3cccnc3)cc2C1=Cc1cc(Br)c(O)c(Br)c1` [Example 11], the figure is less than 1000 nM.
Take `O=C1Nc2ccc(C(=O)c3cccnc3)cc2C1=Cc1cc(Cl)c(O)c(Cl)c1` [Example 12, 3-(3,5-Dichloro-4-hydroxy-benzylidiene)-5-(pyridine-3-carbonyl)-1,3-dihydro-indol-2-one]: the IC50 was less than 1000 nM.
As for `O=C1Nc2ccc(C(=O)c3ccncc3)cc2C1=Cc1cc(Br)c(O)c(Br)c1` [Example 13, 3-(3,5-Dibromo-4-hydroxy-benzylidene)-5-(pyridine-4-carbonyl)-1,3-dihydro-indol-2-one], the figure is less than 1000 nM; as for `CCOc1cc(C=C2C(=O)Nc3ccc(C(=O)c4ccncc4)cc32)cc(Br)c1O` [Example 14, 3-(3-Bromo-5-ethoxy-4-hydroxy-benzylidene)-5-(pyridine-4-carbonyl)-1,3-dihydro-indol-2-one], less than 1000 nM; as for `O=C1Nc2ccc(C(=O)c3ccncc3)cc2C1=Cc1cc(Cl)c(O)c(Cl)c1` [Example 15, 3-(3,5-Dichloro-4-hydroxy-benzylidene)-5-(pyridine-4-carbonyl)-1,3-dihydro-indol-2-one], less than 1000 nM.
Under `CCOc1cc(C=C2C(=O)Nc3ccc(C(=O)c4cccnc4)cc32)cc(Br)c1O` [Example 16, 3-(3-Bromo-5-ethoxy-4-hydroxy-benzylidene)-5-(pyridine-3-carbonyl)-1,3-dihydro-indol-2-one] stands less than 1000 nM; under `O=C1Nc2ccc(-c3cnco3)cc2C1=Cc1cc(Cl)c(O)c(Cl)c1` [Example 17], less than 1000 nM.
On to `O=C1Nc2ccc(-c3cnco3)cc2C1=Cc1cc(Br)c(O)c(Br)c1` [Example 18, 3-(3,4-Dibromo-4-hydroxy-benzylidene)-5-(oxazol-5-yl)-1,3-dihydro-indol-2-one], for which the IC50 was less than 1000 nM.
As for `CCc1nc(-c2ccc3c(c2)C(=Cc2cc(Br)c(O)c(Br)c2)C(=O)N3)cs1` [Example 19, 3-(3,5-Dibromo-4-hydroxy-benzylidene)-5-(2-ethyl-thiazol-4-yl)-1,3-dihydro-indol-2-one], the figure is less than 1000 nM.
As for `COC(=O)c1ccc2c(c1)C(=Cc1cc(Br)c(O)c(Br)c1)C(=O)N2` [Example 20, 3-(3,5-Dibromo-4-hydroxy-benzylidene)-2-oxo-2,3-dihydro-1H-indol-5-carboxylic acid methyl ester], the figure is less than 1000 nM; as for `O=C1Nc2ccc(C(=O)c3ccco3)cc2C1=Cc1cc(Br)c(O)c(Br)c1` [Example 21], less than 1000 nM; as for `O=C1Nc2ccc(C(=O)c3ccco3)cc2C1=Cc1cc(Cl)c(O)c(Cl)c1` [Example 22], less than 1000 nM.
In the case of `CCOc1cc(C=C2C(=O)Nc3ccc(C(=O)c4ccco4)cc32)cc(Br)c1O` [Example 23], the IC50 was less than 1000 nM.
Under `O=C1Nc2ccc(C(=O)C3CC3)cc2C1=Cc1cc(Br)c(O)c(Br)c1` [Example 24, 5-Cyclopropanecarbonyl-3-(3,5-dibromo-4-hydroxy-benzylidene)-1,3-dihydro-indol-2-one] stands less than 1000 nM; under `O=C1Nc2ccc(C(=O)C3CCCC3)cc2C1=Cc1cc(Br)c(O)c(Br)c1` [Example 26, 5-Cyclopentanecarbonyl-3-(3,5-dibromo-4-hydroxy-benzylidene)-1,3-dihydro-indol-2-one], less than 1000 nM; under `COC(=O)c1ccc2c(c1)C(=Cc1cc(Cl)c(O)c(Cl)c1)C(=O)N2` [Example 27, 3-(3,5-Dichloro-4-hydroxy-benzylidene)-2-oxo-2,3-dihydro-1H-indole-5-carboxylic acid methyl ester], less than 1000 nM.
As for `O=C1Nc2ccccc2C1=Cc1cc(Br)c(O)c(Br)c1` [Example 28, 3-(3,5-Dibromo-4-hydroxy-benzylidene)-1,3-dihydro-indol-2-one], the figure is 1000 to 10000 nM; as for `O=C1Nc2ccc(C(=O)c3cccs3)cc2C1=Cc1cc(Br)c(O)c(Br)c1` [Example 29, 3-(3,5-Dibromo-4-hydroxy-benzylidene)-5-(thiophene-2-carbonyl)-1,3-dihydro-indol-2-one], less than 1000 nM.
In the case of `Nc1nc(-c2ccc3c(c2)C(=Cc2cc(Br)c(O)c(Br)c2)C(=O)N3)cs1` [Example 30, 5-(2-Amino-thiazol-4-yl)-3-(3,5-dibromo-4-hydroxy-benzylidene)-1,3-dihydro-indol-2-one], the IC50 was less than 1000 nM.
As for `O=C1Nc2ccc(-c3cn4ccccc4n3)cc2C1=Cc1cc(Br)c(O)c(Br)c1` [Example 31, 3-(3,5-Dibromo-4-hydroxy-benzylidene)-5-(imidazo[1,2a]pyridin-2-yl)-1,3-dihydro-indol-2-one], the figure is less than 1000 nM.
Turning to `CCC(=O)c1ccc2c(c1)C(=Cc1cc(Br)c(O)c(Br)c1)C(=O)N2` [Example 32, 3-(3,5-Dibromo-4-hydroxy-benzylidene)-5-propionyl-1,3-dihydro-indol-2-one], the IC50 is less than 1000 nM.
As for `NS(=O)(=O)c1ccc2c(c1)C(=Cc1cc(Br)c(O)c(Br)c1)C(=O)N2` [Example 33, 3-(3,5-Dibromo-4-hydroxy-benzylidene)-2-oxo-2,3-dihydro-1H-indole-5-sulfonic acid amide], the figure is less than 1000 nM.
